pIC50: −log10 of the molar value. ≈ marks a conversion by molar mass, not a printed value. Read-outs that look alike come from different tables or passages of the source.
How the values were obtained:
[1] = biological target: Leucyl-tRNA synthetase (LeuRS) (Escherichia coli (strain K12), UniProt P07813); test: Leucyl-tRNA synthetase enzyme inhibition (AMP-Glo; single point % inhibition at 100 μM and IC50); assay type: biochemical
Source text: Study 1—Enzyme Inhibition
The aminoacylation reaction catalyzed by aminoacyl-tRNA synthetases (aaRS) takes place in two steps. In the first step, aaRS activates its cognate amino acid with ATP; and in the second step the activated amino acid is loaded to its corresponding tRNA. This reaction can be summarized as follows: aaRS+aa+ATP=aaRS-aa-AMP+PPi aaRS-aa-AMP+tRNA=aa-tRNA+AMP+aaRS
wherein: aaRS, aminoacyl-tRNA synthetase; aa, amino acid; aaRS-aa-AMP, enzyme-bound to aminoacyl-adenylate; AMP, adenosine monophosphate; aa-tRNA, aminoacyl-tRNA, PPi, inorganic pyrophosphate.
a. Single Point Percentage Inhibition
The activity of the pathogenic aaRSs was monitored by measuring AMP production using the commercial kit AMP-Glo (Promega, Madison, USA).
Ligand stock solutions were prepared in 100% DMSO at 10 mM concentration. An assay buffer consisting of 100 mM Tris HCl pH 7.6, 40 mM MgCl, 20 mM KCl and 150 mM NaCl was prepared in dH2O.
Using the same enzymatic assay in a 384-well plate format, ten point concentration response curves were generated for each compound using a top concentration of 10 μM. The known inhibitor LeuAMS was used as a positive control for the LeuRS assay. 100% DMSO was used as a negative control. The IC50 was calculated based on non-linear regression analysis.

[2] = tested on: bacteria (ATCC reference strains); test: Antibacterial activity, MIC by broth micro-dilution (CLSI)
[3] = E. coli LeuRS, read-out: Enzyme Inhibition - IC50, E. coli LeuRS
[4] = Escherichia coli, BAA2469, read-out: Antibacterial Activity (MIC), G = E. coli BAA-2469
[5] = Klebsiella pneumoniae, ATCC700603, read-out: Antibacterial Activity (MIC), C = K. pneumoniae ATCC 700603
[6] = Escherichia coli, ATCC25922, read-out: Antibacterial Activity (MIC), A = E. coli ATCC 25922
[7] = Haemophilus influenzae, ATCC49247, read-out: Antibacterial Activity (MIC), F = H. influenzae ATCC 49247
[8] = Acinetobacter baumannii, read-out: Antibacterial Activity (MIC), E = A. baumannii B1931
[9] = Enterobacter cloacae, read-out: Antibacterial Activity (MIC), B = Enterobacter cloacae B1966
[10] = Pseudomonas aeruginosa, ATCC27853, read-out: Antibacterial Activity (MIC), D = P. aeruginosa ATCC 27853

Leucyl-tRNA synthetase (LeuRS), sequence (P07813 whole entry, looked up): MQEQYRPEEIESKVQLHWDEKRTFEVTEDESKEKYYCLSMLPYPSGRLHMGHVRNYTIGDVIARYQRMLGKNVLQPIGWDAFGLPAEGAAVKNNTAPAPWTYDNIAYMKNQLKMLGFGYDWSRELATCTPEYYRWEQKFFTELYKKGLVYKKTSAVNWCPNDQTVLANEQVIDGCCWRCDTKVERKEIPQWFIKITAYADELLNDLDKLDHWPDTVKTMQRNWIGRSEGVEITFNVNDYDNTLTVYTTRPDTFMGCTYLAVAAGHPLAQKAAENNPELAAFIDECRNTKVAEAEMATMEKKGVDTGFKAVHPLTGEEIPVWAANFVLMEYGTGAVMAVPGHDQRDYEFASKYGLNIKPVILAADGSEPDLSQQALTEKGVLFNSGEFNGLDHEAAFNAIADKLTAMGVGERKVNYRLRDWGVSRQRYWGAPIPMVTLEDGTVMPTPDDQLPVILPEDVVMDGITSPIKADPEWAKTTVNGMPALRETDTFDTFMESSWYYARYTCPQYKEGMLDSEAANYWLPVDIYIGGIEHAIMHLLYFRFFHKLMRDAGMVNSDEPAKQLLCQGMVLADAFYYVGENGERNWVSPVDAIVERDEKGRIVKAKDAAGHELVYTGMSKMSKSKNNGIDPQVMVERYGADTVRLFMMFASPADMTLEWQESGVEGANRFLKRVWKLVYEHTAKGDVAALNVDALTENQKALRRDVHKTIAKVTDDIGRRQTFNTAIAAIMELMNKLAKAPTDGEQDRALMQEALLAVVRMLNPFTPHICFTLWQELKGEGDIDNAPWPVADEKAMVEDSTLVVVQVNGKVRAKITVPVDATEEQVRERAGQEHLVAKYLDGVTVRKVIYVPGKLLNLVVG

Compound	pIC50 [1, 3]	MIC [2, 4]	MIC [2, 5]	pIC50 [1]	MIC [2, 6]	MIC [2, 7]	MIC [2, 8]	MIC [2, 9]	MIC [2, 10]
CC(C)C[C@H](N)C(=O)N=S(N)(=O)c1csc(F)c1 (stereo partly shown) [ANASIA-060]	6.64	16 µg/mL (≈ 54.5 µM)	32 µg/mL (≈ 109 µM)						
CC(C)C[C@H](N)C(=O)N=[S@](N)(=O)c1cc(F)cs1 [ANASIA-062-1]		8 µg/mL (≈ 27.3 µM)	32 µg/mL (≈ 109 µM)	7.32					
CC(C)C[C@H](N)C(=O)N=S(N)(=O)c1cc(F)c(F)s1 (stereo partly shown) [ANASIA-063]	6.65	64 µg/mL (≈ 206 µM)	> 256 µg/mL						
CCOc1cccc(S(N)(=O)=NC(=O)[C@@H](N)CC(C)C)c1 (stereo partly shown) [ANASIA-066]	6.26	> 64 µg/mL			64 µg/mL (≈ 204 µM)				
CC(C)C[C@H](N)C(=O)N=S(N)(=O)c1sccc1-c1ccccc1 (stereo partly shown) [ANASIA-068]	6.85	> 64 µg/mL			32 µg/mL (≈ 91 µM)				
CC(C)C[C@H](N)C(=O)N=S(N)(=O)c1sccc1F (stereo partly shown) [ANASIA-070]	6.84	32 µg/mL (≈ 109 µM)	64 µg/mL (≈ 218 µM)						
CC(C)C[C@H](N)C(=O)N=S(N)(=O)c1ccc(F)s1 (stereo partly shown) [ANASIA-071]	6.76	8 µg/mL (≈ 27.3 µM)	32 µg/mL (≈ 109 µM)						
CC(C)C[C@H](N)C(=O)N=S(N)(=O)c1ccsc1F (stereo partly shown) [ANASIA-074]	7.00	16 µg/mL (≈ 54.5 µM)	32 µg/mL (≈ 109 µM)						
CC(C)C[C@H](N)C(=O)N=[S@](N)(=O)c1ccccn1.Cl [ANASIA-075-1]				6.38	32 µg/mL	> 64 µg/mL			
CC(C)C[C@H](N)C(=O)N=[S@](N)(=O)c1csc2ccccc12 [ANASIA-083-1]	6.80				32 µg/mL (≈ 98.3 µM)	32 µg/mL (≈ 98.3 µM)			
CC(C)C[C@H](N)C(=O)N=[S@](N)(=O)c1cccc(C(F)(F)F)c1.Cl [ANASIA-089-1]				6.71	64 µg/mL	64 µg/mL			
Cc1sccc1[S@@](N)(=O)=NC(=O)[C@@H](N)CC(C)C.Cl [ANASIA-091-1]		> 64 µg/mL		6.07	64 µg/mL				
Cc1cscc1[S@@](N)(=O)=NC(=O)[C@@H](N)CC(C)C.Cl [ANASIA-094-1]		64 µg/mL	128 µg/mL	6.32	8 µg/mL				
Cc1csc([S@@](N)(=O)=NC(=O)[C@@H](N)CC(C)C)c1.Cl [ANASIA-095-1]		2 µg/mL	10.1 µg/mL	7.54	0.794 µg/mL		8 µg/mL	8 µg/mL	32 µg/mL
Cc1cc([S@@](N)(=O)=NC(=O)[C@@H](N)CC(C)C)cs1.Cl [ANASIA-098-1]		4 µg/mL	32 µg/mL	6.83	3.17 µg/mL		64 µg/mL	16 µg/mL	64 µg/mL
CC(C)C[C@H](N)C(=O)N=[S@](N)(=O)c1csc(Cl)c1.Cl [ANASIA-099-1]		4 µg/mL	8 µg/mL	6.91	0.5 µg/mL		16 µg/mL	4 µg/mL	64 µg/mL
CC(C)C[C@H](N)C(=O)N=[S@](N)(=O)c1csc2ccsc12.Cl [ANASIA-100-1]		5.66 µg/mL	45.3 µg/mL	7.56	1 µg/mL		16 µg/mL	16 µg/mL	64 µg/mL
CC(C)C[C@H](N)C(=O)N=[S@](N)(=O)c1ccc2c(c1)OCO2.Cl [ANASIA-101-1]				5.78	64 µg/mL				

Compound	pIC50 [1, 3]	MIC [2, 4]	MIC [2, 5]	pIC50 [1]	MIC [2, 6]	MIC [2, 7]	MIC [2, 8]	MIC [2, 9]	MIC [2, 10]
COc1cccc(S(N)(=O)=NC(=O)[C@@H](N)CC(C)C)c1 (stereo partly drawn) [ANASIA-102, (2S)-2-amino-N-(amino(3-methoxyphenyl)(oxo)-16-sulfaneylidene)-4-methylpentanamide]	6.41	> 64 µg/mL			16 µg/mL (≈ 53.4 µM)				
CC(C)C[C@H](N)C(=O)N=[S@@](N)(=O)c1scc(F)c1F [ANASIA-103-2]	6.68				16 µg/mL (≈ 51.4 µM)				
Cc1csc([S@@](N)(=O)=NC(=O)[C@@H](N)CC(C)C)c1C.Cl [ANASIA-104-1]		16 µg/mL	128 µg/mL	6.62	8 µg/mL				
C=Cc1ccc([S@@](N)(=O)=NC(=O)[C@@H](N)CC(C)C)s1 [ANASIA-105-1, (S)-2-amino-N—((S)-amino(oxo)(5-vinylthiophen-2-yl)-λ6-sulfanylidene)-4-methylpentanamide]				6.31	32 µg/mL (≈ 106 µM)				
CC(C)C[C@H](N)C(=O)N=[S@](N)(=O)c1scc(Br)c1Br.Cl [ANASIA-107-1]				6.97	32 µg/mL				
COc1ccc([S@@](N)(=O)=NC(=O)[C@@H](N)CC(C)C)s1.Cl [ANASIA-109-1]		32 µg/mL		5.59	32 µg/mL				
CC(C)C[C@H](N)C(=O)N=S(N)(=O)c1ccccc1O (stereo partly drawn) [ANASIA-113, (2S)-2-amino-N-(amino(2-hydroxyphenyl)(oxo)-λ6-sulfanylidene)-4-methylpentanamide]	5.49				64 µg/mL (≈ 224 µM)				
CCc1ccsc1[S@@](N)(=O)=NC(=O)[C@@H](N)CC(C)C.Cl [ANASIA-119-1]		8 µg/mL	64 µg/mL	7.00	4 µg/mL		32 µg/mL	32 µg/mL	> 64 µg/mL
CC(C)C[C@H](N)C(=O)N=[S@](N)(=O)c1sc(Cl)cc1Cl.Cl [ANASIA-120-1]				6.53	32 µg/mL				
CC(C)C[C@H](N)C(=O)N=[S@](N)(=O)c1cc(Cl)c(Cl)s1.Cl [ANASIA-121-1]		16 µg/mL	> 256 µg/mL	7.38	8 µg/mL				
Cc1c([S@@](N)(=O)=NC(=O)[C@@H](N)CC(C)C)csc1Cl.Cl [ANASIA-122-1]				6.78	32 µg/mL				
CC(C)C[C@H](N)C(=O)N=[S@](N)(=O)c1csc(Cl)c1Cl.Cl [ANASIA-125-1]		64 µg/mL	> 256 µg/mL	6.52					
CC(C)C[C@H](N)C(=O)N=[S@](N)(=O)c1ccsc1C(F)F.Cl [ANASIA-126-1]		32 µg/mL	256 µg/mL	6.68	5.66 µg/mL		> 64 µg/mL	> 64 µg/mL	> 64 µg/mL
Cc1nc([S@@](N)(=O)=NC(=O)[C@@H](N)CC(C)C)cs1.Cl [ANASIA-129-1]		64 µg/mL	128 µg/mL	6.50					
CC(C)C[C@H](N)C(=O)N=[S@](N)(=O)c1csc2cccnc12.Cl [ANASIA-131-1]		> 64 µg/mL	256 µg/mL	6.28	32 µg/mL				
CCc1csc([S@@](N)(=O)=NC(=O)[C@@H](N)CC(C)C)c1 [ANASIA-133-1, (S)-2-amino-N—((S)-amino(4-ethylthiophen-2-yl)(oxo)-λ6-sulfanylidene)-4-methylpentanamide]		8 µg/mL (≈ 26.4 µM)	128 µg/mL (≈ 422 µM)	7.01					
CC(C)C[C@H](N)C(=O)N=[S@@](N)(=O)c1csc(C#N)c1.Cl [ANASIA-135-2]	6.58	64 µg/mL	> 256 µg/mL		8 µg/mL				
